ChEMBL document CHEMBL5233287, “In Vitro Hypoglycemic Diterpenoids from the Roots of Croton yunnanensis” (J Nat Prod, 2023)
Calls of active or inactive are those of the source. The rule behind the calls is not given here.

Columns and labels:
[1] = test system: 3T3-L1; experiment: Hypoglycemic activity in insulin-resistant mouse 3T3-L1 cells assessed as increase in 2-deoxyglucose uptake treated with compound for 10 mins followed by 2-deoxyglucose challenge for 30 mins by liquid scintillation counting analysis; type: functional, cell-based; details: time 40.0 min
[2] = test system: 3T3-L1; experiment: Insulin sensitizing activity in mouse 3T3-L1 cells assessed as increase in 2-deoxyglucose uptake at 5 to 20 uM treated with compound and insulin for 10 mins followed by 2-deoxyglucose challenge for 30 mins by liquid scintillation counting analysis; type: functional, cell-based; details: dose 5-20 µM, time 40.0 min

SMILES	Activity [1]	Activity [2]
C=C1CC[C@]23[C@@H](OC(=O)c4ccccc4)O[C@H]4O[C@H](c5ccoc5)C[C@]14[C@H]2CCC(=O)[C@@]3(O)C(=O)OC	Active	Active
COC(=O)C1=CCC[C@H]2[C@@]13CC[C@@H](C)[C@]21C[C@@H](C2=C[C@@H](OC)OC2=O)O[C@@H]1OC3=O	Active	–
COC(=O)C1=CCC[C@@H]2[C@]34C[C@@H](c5ccoc5)O[C@@H]3O[C@]12CC[C@H]4C	Active	–
COC(=O)C1=CCC[C@H]2[C@@]13CC[C@@H](C)[C@]21C[C@@H](C2=CC(=O)O[C@H]2OC)O[C@@H]1O[C@@H]3OC	Active	–
COC(=O)C1=CCC[C@@H]2[C@]34C[C@@H](C5=CC(=O)O[C@H]5OC)O[C@@H]3O[C@]12CC[C@H]4C	Active	Active
COC(=O)C1=CCC[C@@H]2[C@]34C[C@@H](C5=C[C@@H](OC)OC5=O)O[C@@H]3O[C@]12CC[C@H]4C	Active	–
COC(=O)[C@H]1C=CC[C@H]2[C@@]13CC[C@@H](C)[C@]21C[C@@H](C2=CC(=O)O[C@H]2OC)O[C@@H]1O3	Active	–
